Experimental findings from patent publication US20210283091A1, “DECREASING IMMUNE ACTIVITY THROUGH MODULATION OF POSTCELLULAR SIGNALING FACTORS” (FLAGSHIP PIONEERING INNOVATIONS V, INC., priority 2018, published 2021) are described below.

Experiment [1] concerns NFKB. The experiment is described as follows: NFKB reporter activity in THP1-Dual monocytes co-cultured with treated Caki-1 cells. The format is cell-based, human. The procedure:
Caki-1 renal cell carcinoma cells were treated with either control (DMSO) or various doses of Erastin, for 24 hours prior to co-culture with THP1-Dual cells for an additional 24 hours. Erastin was purchased from Selleckchem (Houston, Tex.) and dissolved in DMSO. Subsequently, the THP1 supernatants were assessed for NFKB or IRF reporter activity. Caki-1 cells were acquired from ATCC and THP1-Dual cells acquired from InvivoGen (San Diego, Calif.). Both cell types were cultured in 96-well plates for the duration of the assay. 7.500 Caki-1 cells were plated 24 hours prior to dosing with Erastin, with a final DMSO concentration of 0.5%. 24 hours post-treatment, THP1-Dual cells (25,000 cells/well) were added to the Caki-1 cells. 24 hours later, 30 μl of supernatant was mixed with either 200 μl QuantiBlue (InvivoGen) or 50 μl QuantiLuc and absorbance or luminescence was recorded on a Molecular Devices plate reader. Caki-1 renal cell carcinoma cells were treated with either control (DMSO) or various doses of RSL3, for 24 hours prior to co-culture with THP1-Dual cells for an additional 24 hours. RSL3 was purchased from Selleckchem and dissolved in DMSO. Subsequently, the THP1 supernatants were assessed for NFKB or IRF reporter activity. Caki-1 cells were acquired from ATCC and THP1-Dual cells acquired from InvivoGen (San Diego, Calif.). Both cell types were cultured in 96-well plates for the duration of the assay. 7.500 Caki-1 cells were plated 24 hours prior to dosing with […], with a final DMSO concentration of 0.5%. 24 hours post-treatment, THP1-Dual cells (25,000 cells/well) were added to the Caki-1 cells. 24 hours later, 30 μl of supernatant was mixed with either 200 μl QuantiBlue (InvivoGen, San Diego, Calif.) or 50 μl QuantiFuc and absorbance or luminescence was recorded on a Molecular Devices plate reader. […] Subsequently, the THP1 supernatant was assessed for NFKB reporter activity. […]

Experiment [2] concerns Caki-1 renal cell carcinoma cells. The experiment is described as follows: Viability of Caki-1 renal cell carcinoma cells treated with ferroptosis inducer, with or without Ferrostatin-1. The experiment is classed as cell-based.
Experiment [3] concerns A20 B-cell leukemia cells. Description: Viability of A20 cells treated with GPX4 inhibitor, with or without Ferrostatin-1. The format is cell-based. Particulars: for viability of A20 cells: various doses, 24 hours treatment.
The next experiment relates to C57/B6 mice. The experiment is described as follows: Dextran sodium sulfate colitis in mice. The format is in vivo. Particulars: 10 mg/kg, i.p., 3-4% dextran sodium sulfate 5 days, compared to vehicle. On the procedure: C57/B6 mice are treated with vehicle or Ferrostatin (10 mg/kg, i.p) before the induction of colitis by administration of 3-4% dextran sodium sulfate in the drinking water for 5 days. An anti-inflammatory effect of ferrostatin compared to vehicle is confirmed by […], decreased diarrhea, and decreased weight loss. In addition, inhibition of neutrophil recruitment (innate immune response) by ferrostatin in confirmed by decreased myeloperoxidase activity in the colon (compared to vehicle).

For experiment [4], the system named is NFKB. Description: NFKB reporter activity in THP1-Dual monocytes co-cultured with treated A20 cells. The format is cell-based, human. Particulars: for NFKB signaling in THP1 monocytes: A20 cells treated 24 hours, then co-culture with THP1-Dual cells 24 hours. The procedure:
A20 B-cell leukemia cells were treated with either control (DMSO) or various doses of RSL3, for 24 hours prior to co-culture with THP1-Dual cells for an additional 24 hours. RSL3 was purchased from Selleckchem (Houston, Tex.) and dissolved in DMSO. Subsequently, the THP1 supernatants were assessed for NFKB or IRF reporter activity.
A20 cells were acquired from ATCC and THP1-Dual cells acquired from InvivoGen (San Diego, Calif.). Both cell types were cultured in 96-well plates for the duration of the assay. 50,000 A20 cells were plated 24 hours prior to dosing with RSL3, with a final DMSO concentration of 0.5%. 24 hours post-treatment, THP1-Dual cells (25,000 cells/well) were added to the A20 cells. 24 hours later, 30 μl of supernatant was mixed with either 200 μl QuantiBlue (InvivoGen, San Diego, Calif.) or 50 μl QuantiLuc and absorbance or luminescence was recorded on a Molecular Devices plate reader.
A20 lymphoma cells were treated with various doses (e.g. 0.002, 0.005, 0.014, 0.041, 0.123, 0.370, 1.111, 3.333 and 10 μM) of a GPX4 inhibitor (RSL3, ML162 or ML210) in the presence or absence of 1 μM Ferrostatin-1 for 24 hours. ML162 was purchased from Cayman Chemical Company Inc and resuspended in DMSO. ML210 was purchased from Sigma-Aldrich and resuspended in DMSO. A20 lymphoma cells were also treated with DMSO as a negative control. After treatment with DMSO or a GPX4 inhibitor for 24 hours, the A20 lymphoma cells were co-cultured with THP1-Dual cells for an additional 24 hours. Subsequently, the THP1 supernatant was assessed for NFKB reporter activity. A20 cells were acquired from ATCC and THP1-Dual cells were acquired from InvivoGen (San Diego, Calif.). Both cell types were cultured in 96-well plates for the duration of the assay.

Experiment [5] concerns NFKB. The experiment is described as follows: NFKB reporter activity in THP1-Dual monocytes co-cultured with treated HT1080 cells. The experiment is classed as cell-based, human. Particulars: HT1080 cells treated 24 hours, then co-culture with THP1-Dual cells 24 hours. On the procedure:
HT1080 fibrosarcoma cells were treated with either control (DMSO) or various doses of Erastin, piperazine erastin (PE), or imidazole ketoerastin (IKE) for 24 hours prior to co-culture with THP1-Dual cells for an additional 24 hours. Erastin was purchased from Selleckchem (Houston, Tex.) and dissolved in DMSO. Subsequently, the THP1 supernatants were assessed for nuclear factor kappa-light-chain-enhancer of activated B cells (NFKB) or interferon regulatory factor (IRF) reporter activity.
HT1080 cells were acquired from ATCC and THP1-Dual cells were acquired from InvivoGen (San Diego, Calif.). […] 24 hours later, 30 μl of supernatant was mixed with either 200 μl QuantiBlue (InvivoGen, San Diego, Calif.) (for NFKB reporter activity) or 50 μl QuantiLuc (for IRF reporter activity) and absorbance or luminescence was recorded on a Molecular Devices plate reader.
HT1080 fibrosarcoma cells were treated with various doses of Erastin (e.g. 0.8, 0.16, 0.31, 0.63, 1.25, 2.5, 5, 10 or 20 μM) alone or in combination with a ferroptosis inhibitor (1 μM Ferrostatin-1, 1 μM Liproxstatin-1, 100 μM Trolox, 25 μM β-Mercaptoethanol or 100 μM Deferoxamine) for 24 hours prior to co-culture with THP1-Dual cells for an additional 24 hours. […] Subsequently, the THP1 supernatant was assessed for NFKB activity. […]

The test system of experiment [6] is HT1080 fibrosarcoma cells. Description: Viability of HT1080 fibrosarcoma cells treated with ferroptosis inducer, with or without ferroptosis inhibitor or siRNA. The format is cell-based. Particulars: various doses, 24 hours treatment.

As for `CCOC(=O)c1ccc(NC2CCCCC2)c(N)c1` [Ferrostatin-1], the “effect on NFKB activity in THP1 cells increased by RSL3- or ML162-treated Caki-1 cells” value in the experiment on NFKB [1] (1 μM Ferrostatin) is listed as “attenuated”. The “effect on viability of Caki-1 renal carcinoma cells decreased by GPX4 inhibitor (RSL3 or ML162)” value in experiment [2] (1 μM Ferrostatin, 24 hours) was “attenuated”. The “effect on viability of A20 lymphoma cells decreased by GPX4 inhibitor (RSL3, ML162 or ML210)” value in experiment [3] (1 μM Ferrostatin-1, 24 hours) is on record as “attenuated”. For the same compound, in the experiment on C57/B6 mice, the colon length result is on record as “decreased”, the diarrhea entry was “decreased”, the “myeloperoxidase activity in the colon” value is given as “decreased” and the weight loss entry is reported as “decreased”. Besides, the “effect on NFKB activity in THP1 cells increased by GPX4 inhibitor-treated A20 lymphoma cells” value with NFKB [4] (1 μM Ferrostatin-1) was “attenuated”.

Turning to `CC(C)Oc1ccc(C(=O)Cn2ccnc2)cc1-n1c(CN2CCN(C(=O)COc3ccc(Cl)cc3)CC2)nc2ccccc2c1=O` [IKE, imidazole ketoerastin], in the experiment with NFKB [5], the “NFKB signaling in THP1 monocytes” value was “elicited NFKB signaling”. Further, the “viability of HT1080 cells” value in experiment [6] was “negatively affected the viability”.

Regarding `COc1ccc(N(C(=O)CCl)C(C(=O)NCCc2ccccc2)c2cccs2)cc1Cl` (stereo not drawn) [ML162], the “NFKB signaling in THP1 monocytes” value in the experiment on NFKB [1] (Caki-1 cells treated 24 hours, then co-culture with THP1-Dual cells 24 hours) was “increased NFKB activity in THP1 cells in a dose dependent manner”; in the experiment on NFKB [4], “increased NFKB activity in THP1 cells in a dose dependent manner”. Moreover, in experiment [2] (various doses, 24 hours treatment), the “viability of Caki-1 cells” value is “decreased viability of the cells in a dose dependent manner”. Besides, the “viability of A20 cells” value in experiment [3] is reported as “decreased viability of the cells in a dose dependent manner”.

Regarding `Cc1onc(C(=O)N2CCN(C(c3ccc(Cl)cc3)c3ccc(Cl)cc3)CC2)c1[N+](=O)[O-]` [ML210], the “viability of A20 cells” value in experiment [3] is recorded as “decreased viability of the cells in a dose dependent manner”. In addition, the “NFKB signaling in THP1 monocytes” value with NFKB [4] was “increased NFKB activity in THP1 cells in a dose dependent manner”.

Regarding `CC(C)Oc1ccc(CN2CCNCC2)cc1-n1c(CN2CCN(C(=O)COc3ccc(Cl)cc3)CC2)nc2ccccc2c1=O` [PE, piperazine erastin], the “NFKB signaling in THP1 monocytes” value in the experiment with NFKB [5] is on record as “elicited NFKB signaling”. Also, the “viability of HT1080 cells” value in experiment [6] is “negatively affected the viability”.
